Measured values taken from patent US20250332397A1, “SYSTEMS AND METHODS FOR MICRONEEDLE THERAPEUTIC DELIVERY WITH ACOUSTIC SIGNALS” (THE TRUSTEES OF INDIANA UNIVERSITY, priority 2021, published 2025).

Tests used:
[1] = Ex vivo delivery in mice skin tissues (dye released, absorbance); type: in vitro ADME, BALB/c mice; conditions: FIG. 10; 1 Mhz, duty cycle 15%, 4.2 w/cm^2; 30 s, 60 s, 180 s
Source text: The prepared RhB dye (or epinephrine) loaded acoustic patches (or passive patches) were inserted into the fresh hair removed skin tissues harvested from BALB/c mice, and removed from the mice skin tissues. The acoustic path treatment condition (frequency, 1 Mhz; duty cycle, 15%; energy density, 4.2 w/cm^2) was applied to three mouse skin tissues, while there was not acoustic stimulation for passive patch treatments. The mouse skin tissues after acoustic patch and passive treatments with three different treatment time (e.g., 30 s, 60 s, or 180 s) were analyzed.

[2] = acoustic patch mediated delivery, mouse "B"

Experimental for anaphylactic mouse model: Olbumin from chicken egg white (OVA) was used as antigen to induce anaphylaxis, where OVA dosage could regulate the degree of anaphylaxis. Specifically, an OVA solution as an adjuvant was prepared in 1 mg/mL of OVA with 1 μg/mL of Pertussis toxin and 10 mg/mL of aluminum potassium sulfate in 0.9% saline. To sensitize mice, BALB/c mice were injected intraperitoneally with 100 μL of the adjuvant OVA solution. After 3 weeks, these actively sensitize mice were challenged with 10 mg/mL of the adjuvant OVA solution. To trigger the anaphylactic reaction, a 50 μL of 10 mg/mL OVA solution in 0.9% saline was injected intraperitoneally into a mouse. The whole anaphylactic process lasted for about 120 mins, and all the mice were sacrificed after the experimental procedures.
The mice during anaphylaxis were characterized via physiological parameters and symptoms including rectal temperature, movement score, respiratory rate, or blood histamine level. Rectal temperature was measured using a rectal probe for mice in every 2 min in real-time. Respiratory rate was measured through counting the breaths during every 20 seconds through observing the thoracic movement. Movement score was tested by rules as follows: (1) react actively after provoking; (2) slow in response after provoking; (3) no active response after provoking; (4) died. Blood histamine level was measured by testing whole blood samples through tail vein through an ELISA kit (Catalog No: IT6088, vendors). Samples were all restored in −80° C. refrigerator for later assessment of the concentration of histamine by an ELISA kit.
Mice were sensitized via intraperitoneal injection of chicken ovalbumin (OVA) and aluminum potassium sulfate adjuvant and triggered an acute allergic reaction by injecting OVA as an allergen after three weeks. […] We measured the core temperature and respiratory rate of the sensitized mice during the induction of anaphylaxis.

| SMILES | dye released into mouse skin over different delivery times, with acoustics vs without acoustics [1] | allergic symptoms of mouse experiencing severe anaphylaxis (anaphylactic mouse model; [2]) | body temperature of mouse experiencing severe anaphylaxis (anaphylactic mouse model; [2]) | symptoms of anaphylaxis (hypothermia, reduced activity, opisthotonos) (anaphylactic mouse model; after intramuscular injection) |
| --- | --- | --- | --- | --- |
| CCN(CC)c1ccc2c(-c3ccc(S(=O)(=O)O)cc3S(=O)(=O)[O-])c3ccc(=[N+](CC)CC)cc-3oc2c1 [RhB dye, sulforhodamine B] | increased delivery | – | – | – |
| CNC[C@H](O)c1ccc(O)c(O)c1 [epinephrine] | – | relief from allergic symptoms | immediate body temperature increase | obtained relief from these symptoms |
